Molecules are shown by their SMILES.

T1 sequence (P31749 whole entry E17K): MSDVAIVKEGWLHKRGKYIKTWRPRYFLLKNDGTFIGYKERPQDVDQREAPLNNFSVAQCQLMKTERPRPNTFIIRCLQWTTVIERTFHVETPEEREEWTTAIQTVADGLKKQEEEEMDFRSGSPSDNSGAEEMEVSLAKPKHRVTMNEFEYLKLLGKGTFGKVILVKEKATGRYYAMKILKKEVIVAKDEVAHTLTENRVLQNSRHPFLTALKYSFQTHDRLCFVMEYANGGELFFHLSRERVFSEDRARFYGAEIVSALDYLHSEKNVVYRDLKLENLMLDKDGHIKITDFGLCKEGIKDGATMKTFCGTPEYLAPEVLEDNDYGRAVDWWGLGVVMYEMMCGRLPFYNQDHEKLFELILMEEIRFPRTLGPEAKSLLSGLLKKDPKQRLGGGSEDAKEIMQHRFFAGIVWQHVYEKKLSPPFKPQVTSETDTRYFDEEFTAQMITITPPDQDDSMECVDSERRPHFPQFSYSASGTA

The assay has as its target T1, AKT1-E17K (Homo sapiens, UniProt P31749, E17K).
T1 construct: host or cells: HEK-293 (ATCC CRL-1573)
Put plainly: NanoBRET Target Engagement (TE) Assay. Type of assay: cell-based. In outline: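 Live cells transiently expressing NanoLuc-AKT1 E17K fusion, incubated 2 h with tracer and compound before substrate plus extracellular NanoLuc inhibitor were added. BRET read at 450/600 nm; EC50 from variable-slope sigmoidal fit of tracer displacement.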
In general, IC50 refers to the point on the concentration scale where inhibition reaches its midpoint. Higher therefore signals a need for much substance. With `Nc1ncccc1-c1nc2ccc(-c3ccccc3)nc2n1-c1ccc(CN2CC[C@@]3(CCN(C(=O)c4ccc(O)c(C=O)c4)C3)C2)cc1` [Example 98, (R)-5-(7-(4-(2-(2-aminopyridin-3-yl)-5-phenyl-3H-imidazo[4,5-b]pyridin-3-yl)benzyl)-2,7-diazaspiro[4.4]nonane-2-carbonyl)-2-hydroxybenzaldehyde], the IC50 lay in the range of 0.015 to 0.06 µM.

As for `Nc1ncccc1-c1nc2ccc(-c3ccccc3)nc2n1-c1ccc(COc2ccc(C=O)c(O)c2)cc1` [Example 138, 4-((4-(2-(2-Aminopyridin-3-yl)-5-phenyl-3H-imidazo[4,5-b]pyridin-3-yl)benzyl)oxy)-2-hydroxybenzaldehyde], the IC50 lay in the range of 0.06 to 0.6 µM. Under `Nc1ncccc1-c1nc2ccc(-c3ccccc3)nc2n1-c1ccc(CN2CC3CCC2CN3C(=O)c2ccc(C=O)c(O)c2)cc1` (stereo not shown) [Example 125, 4-(5-(4-(2-(2-aminopyridin-3-yl)-5-phenyl-3H-imidazo[4,5-b]pyridin-3-yl)benzyl)-2,5-diazabicyclo[2.2.2]octane-2-carbonyl)-2-hydroxybenzaldehyde] stands 0.06 to 0.6 µM; under `Nc1ncccc1-c1nc2ccc(-c3ccccc3)nc2n1-c1ccc(CN2CC[C@@]3(CCN(c4ccc(C=O)c(O)c4)C3)C2)cc1` [Example 100, (R)-4-(7-(4-(2-(2-Aminopyridin-3-yl)-5-phenyl-3H-imidazo[4,5-b]pyridin-3-yl)benzyl)-2,7-diazaspiro[4.4]nonan-2-yl)-2-hydroxybenzaldehyde], 0.06 to 0.6 µM; under `Nc1ncccc1-c1nc2ccc(-c3ccccc3F)nc2n1-c1ccc(CN2CCN(C(=O)c3ccc(C=O)c(O)c3)CC2)cc1` [Example 142, 4-(4-(4-(2-(2-Aminopyridin-3-yl)-5-(2-fluorophenyl)-3H-imidazo[4,5-b]pyridin-3-yl)benzyl)piperazine-1-carbonyl)-2-hydroxybenzaldehyde], more than 0.6 µM. The same measure for `Nc1ncccc1-c1nc2ccc(-c3cccc(F)c3)nc2n1-c1ccc(CN2CCN(C(=O)c3ccc(C=O)c(O)c3)CC2)cc1` [Example 41, 4-(4-(4-(2-(2-Aminopyridin-3-yl)-5-(3-fluorophenyl)-3H-imidazo[4,5-b]pyridin-3-yl)benzyl)piperazine-1-carbonyl)-2-hydroxybenzaldehyde]: 0.06 to 0.6 µM; for `Nc1ncccc1-c1nc2ccc(-c3ccccc3)nc2n1-c1ccc(CN2CCCCC(NC(=O)c3ccc(O)c(C=O)c3)C2)cc1` (stereo not shown) [Example 117, N-(1-(4-(2-(2-Aminopyridin-3-yl)-5-phenyl-3H-imidazo[4,5-b]pyridin-3-yl)benzyl)azepan-3-yl)-3-formyl-4-hydroxybenzamide]: more than 0.6 µM; for `Nc1ncccc1-c1nc2ccc(-c3ccccc3)nc2n1-c1ccc(CN2C[C@@H]3CN(c4ccc(C=O)c(O)c4)C[C@@H]3C2)cc1` [Example 133, 4-((3aR,6aS)-5-(4-(2-(2-Aminopyridin-3-yl)-5-phenyl-3H-imidazo[4,5-b]pyridin-3-yl)benzyl)hexahydropyrrolo[3,4-c]pyrrol-2(1H)-yl)-2-hydroxybenzaldehyde]: 0.06 to 0.6 µM. Take `Nc1ncccc1-c1nc2ccc(-c3ccc[nH]c3=O)nc2n1-c1ccc(CN2CCN(C(=O)c3ccc(C=O)c(O)c3)CC2)cc1` [Example 15, 4-(4-(4-(2-(2-Aminopyridin-3-yl)-5-(2-oxo-1,2-dihydropyridin-3-yl)-3H-imidazo[4,5-b]pyridin-3-yl)benzyl)piperazine-1-carbonyl)-2-hydroxybenzaldehyde]: the IC50 is more than 0.6 µM. Under `Nc1ncccc1-c1nc2ccc(-c3ccccc3)nc2n1-c1ccc(CN2CCN(c3ccc(O)c(C=O)c3)CC2)cc1` [Example 10, 5-(4-(4-(2-(2-aminopyridin-3-yl)-5-phenyl-3H-imidazo[4,5-b]pyridin-3-yl)benzyl)piperazin-1-yl)-2-hydroxybenzaldehyde] stands 0.06 to 0.6 µM.

These data come from patent US20260365647A1, “AKT1 MODULATORS” (Alterome Therapeutics, Inc., priority 2022, published 2026).
